According to patent US20230203041A1, “ANTAGONISTS OF THE ADENOSINE A2A RECEPTOR” (AdoRx Therapeutics Limited, priority 2020, published 2023):
Where a name gives a salt, the structure may show the parent alone.

Tests used:
[1] = biological target: T1, human Adenosine A2a receptor (Homo sapiens, UniProt P29274); assay: Adenosine receptor TR-FRET binding assay (CA200645 displacement), A2a; conditions: 100 nM CA200645, CHO cell membranes, 2 hours at room temperature
T1 construct: expressed in transfected cells; host or cells: CHO cell membranes
T1 sequence (P29274 whole entry): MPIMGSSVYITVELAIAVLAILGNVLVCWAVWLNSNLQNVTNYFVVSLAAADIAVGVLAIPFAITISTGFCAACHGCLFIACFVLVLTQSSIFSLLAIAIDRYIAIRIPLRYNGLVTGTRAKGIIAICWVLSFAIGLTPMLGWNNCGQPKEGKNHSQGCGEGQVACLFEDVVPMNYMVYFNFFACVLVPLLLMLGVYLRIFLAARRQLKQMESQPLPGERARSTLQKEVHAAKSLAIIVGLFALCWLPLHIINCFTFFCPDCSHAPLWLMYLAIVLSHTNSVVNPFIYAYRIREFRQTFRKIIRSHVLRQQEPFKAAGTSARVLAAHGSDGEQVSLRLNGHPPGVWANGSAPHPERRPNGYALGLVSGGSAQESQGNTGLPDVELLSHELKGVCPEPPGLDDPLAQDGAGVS

[2] = biological target: T2, human Adenosine A3 receptor (Homo sapiens, UniProt P0DMS8); assay: Adenosine receptor TR-FRET binding assay (CA200645 displacement), A3
T2 sequence (P0DMS8 1-318): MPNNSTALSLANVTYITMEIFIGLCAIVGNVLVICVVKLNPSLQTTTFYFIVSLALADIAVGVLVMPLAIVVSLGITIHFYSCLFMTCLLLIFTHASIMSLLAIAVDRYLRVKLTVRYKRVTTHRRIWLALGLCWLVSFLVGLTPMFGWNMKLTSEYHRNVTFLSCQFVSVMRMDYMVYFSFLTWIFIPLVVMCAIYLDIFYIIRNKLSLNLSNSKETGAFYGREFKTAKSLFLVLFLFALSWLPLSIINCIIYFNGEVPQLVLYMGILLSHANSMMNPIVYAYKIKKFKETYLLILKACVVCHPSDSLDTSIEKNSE

[3] = biological target: T3, human Adenosine A1 receptor (Homo sapiens, UniProt P30542); assay: Adenosine receptor TR-FRET binding assay (CA200645 displacement), A1
T3 sequence (P30542 1-326): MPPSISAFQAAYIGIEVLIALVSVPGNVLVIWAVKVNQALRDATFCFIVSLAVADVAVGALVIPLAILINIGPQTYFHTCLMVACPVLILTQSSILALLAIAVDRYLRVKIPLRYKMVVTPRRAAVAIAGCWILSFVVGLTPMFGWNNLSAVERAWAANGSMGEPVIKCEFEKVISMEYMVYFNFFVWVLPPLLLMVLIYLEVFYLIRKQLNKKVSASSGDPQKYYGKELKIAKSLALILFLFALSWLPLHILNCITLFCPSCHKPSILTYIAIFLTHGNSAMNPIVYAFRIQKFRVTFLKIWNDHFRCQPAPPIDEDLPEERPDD

[4] = biological target: T4, human Adenosine A2b receptor (Homo sapiens, UniProt P29275); assay: Adenosine receptor TR-FRET binding assay (CA200645 displacement), A2b; conditions: 30 nM CA200645, CHO cell membranes, 2 hours at room temperature
T4 construct: expressed in transfected cells; host or cells: CHO cell membranes
T4 sequence (P29275 1-332): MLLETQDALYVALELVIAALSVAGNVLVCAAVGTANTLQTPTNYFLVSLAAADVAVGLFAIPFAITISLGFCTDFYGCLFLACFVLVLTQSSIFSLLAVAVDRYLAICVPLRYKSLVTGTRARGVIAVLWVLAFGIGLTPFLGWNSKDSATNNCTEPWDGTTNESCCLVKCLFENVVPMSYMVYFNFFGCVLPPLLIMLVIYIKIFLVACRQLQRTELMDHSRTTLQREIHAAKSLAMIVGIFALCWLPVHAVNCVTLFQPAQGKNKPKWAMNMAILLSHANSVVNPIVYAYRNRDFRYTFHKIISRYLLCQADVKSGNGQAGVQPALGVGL

Ki [1]	Ki [2]	Ki [3]	Ki [4]	Compound
0.572 µM	> 1 µM	–	–	Fc1cccc(-c2nn3ccc(Cl)nc3c2Br)c1 [Example 68, 3-Bromo-5-chloro-2-(3-fluorophenyl)pyrazolo[1,5-a]pyrimidine]
0.202 µM	> 1 µM	1.26 µM	–	CN1CCC[C@@H]1CNc1ccn2nc(-c3ccco3)c(C#N)c2n1 [Example 81, 2-(2-Furyl)-5-[[(2R)-1-methylpyrrolidin-2-yl]methylamino]pyrazolo[1,5-a]pyrimidine-3-carbonitrile]
0.114 µM	> 1 µM	1.15 µM	–	N#Cc1c(-c2ccco2)nn2ccc(N3CCN(CCO)CC3)nc12 [Example 52, 2-(2-Furyl)-5-[4-(2-hydroxyethyl)piperazin-1-yl]pyrazolo[1,5-a]pyrimidine-3-carbonitrile]
0.0549 µM	> 1 µM	0.104 µM	–	Cn1ccnc1CN1CCN(c2ccn3nc(-c4ccco4)c(C#N)c3n2)CC1 [Example 51.2, 2-(2-Furyl)-5-[4-[(1-methylimidazol-2-yl)methyl]piperazin-1-yl]pyrazolo [1,5-a]pyrimidine-3-carbonitrile]
0.0493 µM	7.85 µM	0.154 µM	–	N#Cc1c(-c2ccco2)nn2ccc(N3CCN(Cc4ccccn4)CC3)nc12 [Example 37.7]
0.0226 µM	> 1 µM	0.262 µM	–	N#Cc1c(-c2ccco2)nn2ccc(N3CCN(CCF)CC3)nc12 [Example 37.3]
0.171 µM	2.72 µM	2.17 µM	–	C[C@H]1CN(c2ccn3nc(-c4ccco4)c(C#N)c3n2)CCN1C(=O)OC(C)(C)C [Example 37.11]
0.365 µM	> 1 µM	–	–	N#Cc1c(-c2cnco2)nn2ccc(N3CCN(CCF)CC3)nc12 [Example 62, 5-[4-(2-Fluoroethyl)piperazin-1-yl]-2-oxazol-5-yl-pyrazolo[1,5-a]pyrimidine-3-carbonitrile]
0.102 µM	6.18 µM	0.856 µM	–	O=C(O)/C=C/c1c(-c2ccco2)nn2ccc(NCc3ccccc3)nc12 [Example 54.1, (E)-3-[5-(Benzylamino)-2-(2-furyl)pyrazolo[1,5-a]pyrimidin-3-yl]prop-2-enoic acid]
0.0671 µM	> 1 µM	–	–	CC(C)(O)CNC(=O)c1ccn2nc(-c3cccc(C#N)c3)c(-c3ccncn3)c2n1 [Example 13, 2-(3-Cyanophenyl)-N-(2-hydroxy-2-methyl-propyl)-3-pyrimidin-4-yl-pyrazolo[1,5-a]pyrimidine-5-carboxamide]
0.0175 µM	3.68 µM	1.03 µM	–	Cc1cccnc1CN1CCN(c2ccn3nc(-c4cccc(C#N)c4)c(C#N)c3n2)CC1 [Example 59, 2-(3-Cyanophenyl)-5-[4-[(3-methyl-2-pyridyl)methyl]piperazin-1-yl]pyrazolo[1,5-a]pyrimidine-3-carbonitrile]
0.706 µM	2.9 µM	0.803 µM	–	Fc1cccc(-c2cc3nc(NCCN4Cc5ccccc5C4)ccn3n2)c1 [Example 66.4, 2-(3-Fluorophenyl)-N-(2-isoindolin-2-ylethyl)pyrazolo[1,5-a]pyrimidin-5-amine]
0.0192 µM	1.93 µM	0.103 µM	–	CC(C)(C)OC(=O)N1CCC[C@@H]1CNc1ccn2nc(-c3ccco3)c(C#N)c2n1 [Example 37.2, tert-butyl (2R)-2-[[[3-cyano-2-(2-furyl)pyrazolo[1,5-a]pyrimidin-5-yl]amino]methyl]pyrrolidine-1-carboxylate]
0.0347 µM	0.068 µM	0.018 µM	–	COC(=O)/C=C/c1c(-c2ccco2)nn2ccc(NCc3ccccc3)nc12 [Example 54, Methyl (E)-3-[5-(benzylamino)-2-(2-furyl)pyrazolo[1,5-a]pyrimidin-3-yl]prop-2-enoate]
0.0163 µM	> 1 µM	0.213 µM	–	N#Cc1cccc(-c2nn3ccc(NCCN4CCN(c5ccccc5)CC4)nc3c2C#N)c1 [Example 87.1, 2-(3-Cyanophenyl)-5-[2-(4-phenylpiperazin-1-yl)ethylamino]pyrazolo [1,5-a]pyrimidine-3-carbonitrile]
0.493 µM	> 1 µM	0.366 µM	–	O=C(NCc1ccccc1)c1ccn2nc(-c3ccco3)cc2n1 [Example 85, N-Benzyl-2-(2-furyl)pyrazolo[1,5-a]pyrimidine-5-carboxamide]
0.0491 µM	0.065 µM	0.024 µM	–	N#Cc1c(-c2ccc(F)cc2)nn2ccc(NCc3ccccc3)nc12 [Example 63, 5-(Benzylamino)-2-(4-fluorophenyl)pyrazolo[1,5-a]pyrimidine-3-carbonitrile]
0.0379 µM	4.92 µM	0.042 µM	–	N#Cc1c(-c2cccc(F)c2)nn2ccc(N3CCN(CCF)CC3)nc12 [Example 61, 5-[4-(2-Fluoroethyl)piperazin-1-yl]-2-(3-fluorophenyl)pyrazolo[1,5-a]pyrimidine-3-carbonitrile]
–	–	–	1.57 µM	CCn1nc(C)cc1-c1c(-c2cccc(C#N)c2)nn2ccc(C(=O)NCC(C)(C)O)nc12 [Example 12.1, 2-(3-Cyanophenyl)-3-(2-ethyl-5-methyl-pyrazol-3-yl)-N-(2-hydroxy-2-methyl-propyl)pyrazolo[1,5-a]pyrimidine-5-carboxamide]
0.16 µM	0.231 µM	0.389 µM	–	c1ccc(CNc2ncn3nc(-c4ccco4)cc3n2)cc1 [Example 84, N-Benzyl-7-(2-furyl)pyrazolo[1,5-a][1,3,5]triazin-2-amine]
0.218 µM	> 1 µM	–	–	CC(C)(O)CNC(=O)c1ccn2nc(-c3cccc(C#N)c3)c(C#N)c2n1 [Example 14, 3-Cyano-2-(3-cyanophenyl)-N-(2-hydroxy-2-methyl-propyl)pyrazolo[1,5-a]pyrimidine-5-carboxamide]
0.0464 µM	0.135 µM	1.43 µM	–	Ic1c(-c2ccco2)nn2ccc(NCc3ccccc3)nc12 [Example 77, N-Benzyl-2-(2-furyl)-3-iodo-pyrazolo[1,5-a]pyrimidin-5-amine]
0.665 µM	> 1 µM	4.33 µM	–	C[C@@H]1CN(c2ccn3nc(-c4ccco4)c(C#N)c3n2)CCN1 [Example 82, 2-(2-Furyl)-5-[(3R)-3-methylpiperazin-1-yl]pyrazolo[1,5-a]pyrimidine-3-carbonitrile hydrochloride]
0.127 µM	> 1 µM	1.34 µM	–	CN(C)C1CN(c2ccn3nc(-c4ccco4)c(C(N)=O)c3n2)C1 [Example 39.1, 5-[3-(Dimethylamino)azetidin-1-yl]-2-(2-furyl)pyrazolo[1,5-a]pyrimidine-3-carboxamide]
0.151 µM	3.07 µM	0.459 µM	–	Nc1ccn2nc(-c3ccco3)c(Br)c2n1 [Example 50, 3-Bromo-2-(2-furyl)pyrazolo[1,5-a]pyrimidin-5-amine]
0.0454 µM	> 1 µM	0.363 µM	–	N#Cc1c(-c2ccco2)nn2ccc(N3CCN(CCc4ccccc4)CC3)nc12 [Example 37.6]
0.694 µM	> 1 µM	–	–	CC(C)(C)OC(=O)N1CCC(c2ccn3nc(-c4ccco4)c(C#N)c3n2)CC1 [Example 83, Tert-butyl 4-[3-cyano-2-(2-furyl)pyrazolo[1,5-a]pyrimidin-5-yl]piperidine-1-carboxylate]
0.0389 µM	> 1 µM	2.58 µM	–	NC(=O)c1c(-c2ccco2)nn2ccc(N3CCN(CCF)CC3)nc12 [Example 39, 5-[4-(2-Fluoroethyl)piperazin-1-yl]-2-(2-furyl)pyrazolo[1,5-a]pyrimidine-3-carboxamide]
0.407 µM	> 1 µM	2.48 µM	–	Cc1cccnc1CN1CCN(c2ccn3nc(-c4cnco4)c(C#N)c3n2)CC1 [Example 65, 5-[4-[(3-Methyl-2-pyridyl)methyl]piperazin-1-yl]-2-oxazol-5-yl-pyrazolo[1,5-a]pyrimidine-3-carbonitrile]
0.0624 µM	> 1 µM	0.426 µM	–	CN1CCN(c2ccn3nc(-c4ccco4)c(C#N)c3n2)CC1 [Example 37.8]
